Source: patent EP4763845A1, “CYANO AROMATIC RING DERIVATIVE AND PHARMACEUTICAL USE THEREOF” (Haisco Pharmaceutical Group Co., Ltd., priority 2023, dated 2025)
Like-named read-outs stand apart in the source and are kept apart here. Blank lines part the entries; values can stand above or below the molecule they belong to.

Columns and labels:
[1] = Pharmacokinetic test in mice; type: in vivo, ICR mice; conditions: i.g. (5 mg/kg); for AUC(0-t): mouse, plasma, po
Description: (§1) Experimental objective: In this experiment, a single dose of the test compound was administered to ICR mice via intravenous administration and intragastric gavage, and the concentration of the test compound in plasma of the mice was measured to evaluate the pharmacokinetic profile of the test compound in the mice.
Experimental animals: Male ICR mice, 6 mice/compound, purchased from Chengdu Ddossy Experimental Animals Co., Ltd.
(§2) Experimental method: On the day of the experiment, 6 SD mice were randomly grouped according to their body weights. The animals were fasted with water available for 12 to 14 h one day before the administration, and were fed 4 h after the administration. Table 6 Administration information of pharmacokinetic test in mice
Sampling: Before and after the administration, 0.15 mL of blood was taken from the orbits under isoflurane anaesthesia, and placed in an EDTAK2 centrifuge tube. Centrifugation was carried out at 5000 rpm at 4°C for 10 min, and the plasma was collected.
The plasma collection time points for PO groups were 0, 5 min, 15 min, 30 min, 1 h, 2 h, 4 h, 7 h, 24 h, and 48 h.
The plasma collection time points for IV groups were 0, 5 min, 15 min, 30 min, 1 h, 2 h, 4 h, 7 h, 24 h, and 48 h.
Before analysis and detection, all samples were stored at -60°C. The samples were analysed quantitatively by LC-MS/MS. Table 7 Pharmacokinetic parameters of compounds of the present invention in plasma of mice

hERG potassium channel = biological target: T1, hERG potassium channel (Homo sapiens, UniProt Q12809); test: hERG potassium ion channel test (manual patch-clamp, CHO cells); type: cell-based; conditions: inhibitory activity against hERG potassium channel current, CHO cells, whole cell patch-clamp, read-out: IC50
T1 construct: expressed in transfected cells; host or cells: CHO cells stably expressing hERG
Source text: Experimental platform: Electrophysiological manual patch-clamp system
Cell line: Chinese hamster ovary (CHO) cell lines stably expressing hERG potassium ion channel
Experimental method: In Chinese Hamster Ovary (CHO) cells stably expressing hERG potassium channel, whole cell patch-clamp technique was used to record hERG potassium channel current at room temperature. The glass microelectrode was made of a glass electrode blank (BF150-86-10, Sutter) by a puller. The tip resistance after filling the liquid in the electrode was about 2-5 MΩ. The glass microelectrode can be connected to the patch-clamp amplifier by inserting the glass microelectrode into an amplifier probe. The clamping voltage and data recording were controlled and recorded by the pClamp 10 software through a computer. The sampling frequency was 10 kHz, and the filtering frequency was 2 kHz. After the whole cell records were obtained, the cells were clamped at -80 mV, and the step voltage that induced the hERG potassium current (I hERG) was depolarised from -80 mV to +20 mV for 2 s, then repolarised to -50 mV, and returned to -80 mV after 1 s. This voltage stimulation was given every 10 s, and the administration process was started after the hERG potassium current was confirmed to be stable (at least 1 minute). The compound was administered for at least 1 minute at each test concentration, and at least 2 cells (n ≥ 2) were tested at each concentration.
Data processing: Data analysis processing was carried out by using pClamp 10, GraphPad Prism 5 and Excel software.
Compound IC50 was calculated using GraphPad Prism 5 software by fitting according to the following equation: Y = Bottom + (Top−Bottom)/(1+10^(∧)((LogIC50−X)*HillSlope)) [formula] where X represents the Log value of the tested concentration of the test sample, Y represents the inhibition percentage at the corresponding concentration, and Bottom and Top represent the minimum and maximum inhibition percentage, respectively.

AR protein = biological target: T2, AR protein (Homo sapiens, UniProt P10275); test: Detection of AR degradation in VCaP cells (automated western blot); type: cell-based; conditions: degradation of AR protein in VCaP cells, 24 hours incubation; read-out: DC50
T2 construct: VCap is a human prostate cancer cell line purchased from ATCC; host or cells: VCaP human prostate cancer cells
T2 sequence (P10275 1-920): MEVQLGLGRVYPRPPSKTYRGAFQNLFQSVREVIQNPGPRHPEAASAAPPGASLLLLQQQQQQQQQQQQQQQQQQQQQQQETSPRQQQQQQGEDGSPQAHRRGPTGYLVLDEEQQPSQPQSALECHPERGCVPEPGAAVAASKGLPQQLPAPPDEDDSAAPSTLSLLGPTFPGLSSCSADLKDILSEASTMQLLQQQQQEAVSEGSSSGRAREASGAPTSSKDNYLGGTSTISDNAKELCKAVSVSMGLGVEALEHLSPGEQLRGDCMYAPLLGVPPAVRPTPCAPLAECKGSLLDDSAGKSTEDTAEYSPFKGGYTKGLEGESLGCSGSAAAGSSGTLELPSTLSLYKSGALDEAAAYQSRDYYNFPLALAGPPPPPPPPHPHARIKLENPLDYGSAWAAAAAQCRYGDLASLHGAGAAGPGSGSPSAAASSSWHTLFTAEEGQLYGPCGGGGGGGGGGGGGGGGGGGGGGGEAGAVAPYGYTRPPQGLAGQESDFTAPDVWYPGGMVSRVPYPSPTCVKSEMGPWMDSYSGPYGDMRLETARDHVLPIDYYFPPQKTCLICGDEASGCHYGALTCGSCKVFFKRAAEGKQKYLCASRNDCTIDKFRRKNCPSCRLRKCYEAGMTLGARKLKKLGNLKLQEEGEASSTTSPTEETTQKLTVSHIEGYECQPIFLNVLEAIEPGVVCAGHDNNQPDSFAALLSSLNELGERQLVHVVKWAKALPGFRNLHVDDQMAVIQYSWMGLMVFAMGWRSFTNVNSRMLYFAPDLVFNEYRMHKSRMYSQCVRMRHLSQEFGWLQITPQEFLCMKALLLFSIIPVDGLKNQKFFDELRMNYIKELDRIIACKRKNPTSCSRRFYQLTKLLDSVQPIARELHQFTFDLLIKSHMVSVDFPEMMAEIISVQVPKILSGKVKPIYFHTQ
Description: VCap is a human prostate cancer cell line purchased from ATCC and cultured under the following conditions: DMEM + 10% FBS + 1% penicillin-streptomycin solution. The cells were cultured in a 37°C, 5% CO2 incubator. The cells were seeded in a 6-well plate, with 5 × 10^5 cells/well. After seeding, compounds at various concentrations were added, and the plate was incubated for 24 hours in the 37°C, 5% CO2 incubator. Following incubation, the cells were harvested and RIPA lysis buffer (beyotime, Cat. P0013B) was added. The cells were lysed on ice for 15 minutes and centrifuged at 12,000 rpm at 4°C for 10 minutes. The supernatant protein samples were collected and the protein was quantified using the BCA kit (Beyotime, Cat. P0009). Then the protein was diluted to 0.25 mg/mL. The expressions of AR (CST, Cat.5153S) and the internal reference β-actin (CST, Cat. 3700S) were detected using a fully automated western blot quantitative analyser (Proteinsimple). Using the "Compass for SW" software, the relative peak area of AR was calculated when the internal reference area was 10,000. The proportion of AR relative to the solvent control group at various drug concentrations was calculated according to Equation (1), where ARtreat represents the relative peak area of the compound-treated group, and ARsolvent represents the relative peak area of the solvent control group. The processed data obtained from Equation (1) were analysed using GraphPad Prism 8.3.0 software, and the DC50 value was calculated using a four-parameter nonlinear regression model. The degradation rate at a specified concentration was determined as 100-AR%. AR% = ARtreat/ ARsolvent × 100% [formula]

VCaP cells = test: VCaP cell proliferation inhibition experiment (CellTiter-Glo); type: cell-based; conditions: Homo sapiens, 168 h
Description: After centrifugation and resuspension, viable cell counting was performed using a Vi-Cell XR cell counter. […] Then, 180 µl of the cell suspension was added per well to a 96-well cell culture plate at a cell density of 7,500 cells/well. At the time of seeding, T0 wells were also prepared. The following day, R1881 at a final concentration of 0.1 nM and compounds at various concentrations were added. The plate was placed back into the incubator and cultured for an additional 7 days. At the time of compound addition, the T0 plate was measured using the CellTiter-Glo (CTG) kit (Promega, Cat. No. G7572) and recorded as RLU0. Following incubation, 75 µl of pre-thawed and room temperature-equilibrated CellTiter-Glo solution was added to each well. […] The results were processed according to Equation (2). […] Growth% = (RLUcompound−RLU0)/(RLUcontrol−RLU0) × 100% [formula]

[2] = Pharmacokinetic test in rats; type: in vivo, SD rats; conditions: i.g. (5 mg/kg); for AUC(0-t): rat, po
Description: as §1, with “SD rats” for “ICR mice”, “rats” for “mice”, “rats.” for “mice.”
Experimental animals: Male SD rats, 200-220 g, 6 rats/compound, purchased from Chengdu Ddossy Experimental Animals Co., Ltd.
as §2, with “SD rats” for “SD mice”, “Table 3” for “Table 6”, “in rats” for “in mice”
Sampling: Before and after the administration, 0.1 mL of blood was taken from the orbits under isoflurane anaesthesia, and placed in an EDTAK2 centrifuge tube. Centrifugation was carried out at 5000 rpm at 4°C for 10 min, and the plasma was collected.
The plasma collection time points for IV&PO groups were 0, 5 min, 15 min, 30 min, 1 h, 2 h, 4 h, 7 h, 24 h, and 48 h.
Before analysis and detection, all samples were stored at -60°C. The samples were analysed quantitatively by LC-MS/MS. Table 4 Pharmacokinetic parameters of compounds of the present invention in plasma of rats

[3] = Vehicle 3: 5% DMSO+5% Solutol+90% (20% SBE-β-CD)
[4] = Vehicle 1: 5% DMSO+5% Solutol+30% PEG400+60% (20% SBE-CD)
[5] = vehicle 5% DMSO+5% Solutol+90% (20% SBE-β-CD)

T1 sequence (Q12809 whole entry): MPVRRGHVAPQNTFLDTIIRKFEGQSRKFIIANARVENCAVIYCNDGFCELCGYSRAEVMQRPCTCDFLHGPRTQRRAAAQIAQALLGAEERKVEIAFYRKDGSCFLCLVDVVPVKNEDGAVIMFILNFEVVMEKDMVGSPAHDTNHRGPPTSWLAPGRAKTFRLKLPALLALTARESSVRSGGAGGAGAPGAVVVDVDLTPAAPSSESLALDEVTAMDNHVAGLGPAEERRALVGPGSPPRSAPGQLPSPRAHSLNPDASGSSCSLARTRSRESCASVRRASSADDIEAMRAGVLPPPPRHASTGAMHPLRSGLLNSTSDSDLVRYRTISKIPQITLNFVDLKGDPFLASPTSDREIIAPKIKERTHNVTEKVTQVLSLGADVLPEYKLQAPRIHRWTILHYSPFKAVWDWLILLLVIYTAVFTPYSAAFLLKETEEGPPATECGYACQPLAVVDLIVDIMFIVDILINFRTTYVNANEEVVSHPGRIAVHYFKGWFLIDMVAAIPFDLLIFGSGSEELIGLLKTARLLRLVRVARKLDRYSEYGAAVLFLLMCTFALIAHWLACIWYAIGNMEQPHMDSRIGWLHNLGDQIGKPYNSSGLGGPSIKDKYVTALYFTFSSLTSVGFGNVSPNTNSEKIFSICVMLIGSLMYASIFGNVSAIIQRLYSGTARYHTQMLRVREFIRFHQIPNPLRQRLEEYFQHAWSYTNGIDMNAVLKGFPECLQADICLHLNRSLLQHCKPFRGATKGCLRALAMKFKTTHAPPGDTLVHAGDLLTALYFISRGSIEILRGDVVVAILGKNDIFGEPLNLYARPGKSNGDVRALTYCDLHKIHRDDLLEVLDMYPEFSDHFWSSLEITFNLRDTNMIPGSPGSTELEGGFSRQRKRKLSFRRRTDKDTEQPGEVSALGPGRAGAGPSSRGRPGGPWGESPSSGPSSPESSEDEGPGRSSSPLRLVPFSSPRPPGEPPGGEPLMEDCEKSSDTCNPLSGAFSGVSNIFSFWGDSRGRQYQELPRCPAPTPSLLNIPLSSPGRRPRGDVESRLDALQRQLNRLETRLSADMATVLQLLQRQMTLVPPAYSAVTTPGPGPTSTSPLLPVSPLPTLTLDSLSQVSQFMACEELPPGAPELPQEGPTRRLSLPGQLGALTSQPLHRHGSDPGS

SMILES: CC1(C)[C@H](NC(=O)c2ccc(N3CCC(CN4CCN5c6cc(F)c(C7CCC(=O)NC7=O)cc6CC[C@@H]5C4)CC3)cc2)C(C)(C)[C@H]1Oc1ccc(C#N)c2ncccc12 (some centres unmarked) [Compound 30]
- AUC(0-t) [1, 3]: 33000 ± 9330 ng·h/mL
- IC50 (hERG potassium channel; chinese hamster): > 40000 nM
- DC50 (AR protein): < 100 nM

- GI50 (VCaP cells): > 2000 nM
- F [1, 4]: 63.4±3.3%
- AUC(0-t) ([1]; male, ICR, Vehicle 1: 5% DMSO+5% Solutol+30% PEG400+60% (20% SBE-CD)): 20700 ± 1080 ng·h/mL
- F [2, 5]: 26.9±3.2%
- AUC(0-t) ([2]; male, SD, plasma, vehicle 5% DMSO+5% Solutol+90% (20% SBE-β-CD)): 2870 ± 338 ng·h/mL
SMILES: COc1cc(O[C@H]2C(C)(C)[C@H](NC(=O)c3ccc(N4CCC(CN5CCN(c6ccc(C(=O)N[C@H]7CCC(=O)NC7=O)c(F)c6)CC5)CC4)cc3)C2(C)C)ccc1C#N [Control compound, reference compound]

SMILES: COc1cc(O[C@H]2C(C)(C)[C@H](NC(=O)c3ccc(N4CCC(CN5CCN6c7cc(F)c(C8CCC(=O)NC8=O)cc7CC[C@@H]6C5)CC4)cc3)C2(C)C)ccc1C#N (some centres unmarked) [Compound 2]
- F ([2]; vehicle 5% DMSO+ 5% Solutol+30% PEG-400+60% (20% SBE-β-CD)): 61.4+9.1%
- AUC(0-t) ([2]; in vivo, vehicle 5% DMSO+ 5% Solutol+30% PEG-400+60% (20% SBE-β-CD)): 6010 ± 889 ng·h/mL

SMILES: CC1(C)[C@H](NC(=O)c2ccc(N3CCC(CN4CCN5c6cc(F)c(N7CCC(=O)NC7=O)cc6CC[C@@H]5C4)CC3)cc2)C(C)(C)[C@H]1Oc1ccc(C#N)c2ncccc12 [Compound 32]
- AUC(0-t) [1, 3]: 30900 ± 6080 ng·h/mL
- DC50 (AR protein): < 100 nM

SMILES: COc1cc(O[C@H]2C(C)(C)[C@H](NC(=O)c3ccc(N4CCC(CN5CCN6c7cc(F)c(C8CCC(=O)NC8=O)cc7CC[C@H]6C5)CC4)cc3)C2(C)C)ccc1C#N (some centres unmarked) [Compound 1]
- GI50 (VCaP cells): < 300 nM
- F [2, 5]: 46.5±8.6%
- AUC(0-t) ([2]; in vivo, vehicle 5% DMSO+5% Solutol+90% (20% SBE-β-CD)): 5490 ± 1010 ng·h/mL

- GI50 (VCaP cells): < 300 nM
- AUC(0-t) ([2]; male, SD, plasma, vehicle 5% DMSO+5% Solutol+10% PEG400+80% (20% SBE-β-CD)): 6970 ng·h/mL
- DC50 (AR protein): < 100 nM
SMILES: COc1cc(O[C@H]2C(C)(C)[C@H](NC(=O)c3ccc(N4CCC5(CC4)CC(N4CCN6c7cc(F)c(N8CCC(=O)NC8=O)cc7CC[C@@H]6C4)C5)cc3)C2(C)C)ccc1C#N [Compound 79]
- IC50 (hERG potassium channel; human, CHO cells stably expressing hERG potassium channel): > 40000 nM

SMILES: COc1cc(O[C@H]2C(C)(C)[C@H](NC(=O)c3ccc(N4CCC(CN5CCN6c7cc(F)c(N8CCC(=O)NC8=O)cc7CC[C@@H]6C5)CC4)nc3)C2(C)C)ccc1C#N [Trifluoroacetate of compound 66]
- GI50 (VCaP cells): < 300 nM
- AUC(0-t) [1, 3]: 30400 ± 9310 ng·h/mL

SMILES: COc1cc(O[C@H]2C(C)(C)[C@H](NC(=O)c3ccc(N4CCC(CN5CCN6c7cc(F)c(C(=O)N[C@H]8CCC(=O)NC8=O)cc7CC[C@H]6C5)CC4)cc3)C2(C)C)ccc1C#N [Compound 13]
- AUC(0-t) [1, 4]: 33500 ± 1680 ng·h/mL
- DC50 (AR protein): < 100 nM
